Reference: article PMC8981555 (RSC Advances, 2022)
Like-named read-outs stand apart in the source and are kept apart here.

Legend:
jack bean urease [1] = molecular target: T1, jack bean urease (Canavalia ensiformis, UniProt P07374); assay: Urease inhibition assay; assay type: biochemical; details: for % inhibition: value in parentheses after IC50, concentration not given
jack bean urease [2] = molecular target: T1, jack bean urease; assay: Enzyme kinetic studies; assay type: biochemical; details: for Mode of inhibition: Lineweaver–Burk plots
[3] = at 20 μM concentration of the inhibitor

T1 sequence (P07374 whole entry, looked up): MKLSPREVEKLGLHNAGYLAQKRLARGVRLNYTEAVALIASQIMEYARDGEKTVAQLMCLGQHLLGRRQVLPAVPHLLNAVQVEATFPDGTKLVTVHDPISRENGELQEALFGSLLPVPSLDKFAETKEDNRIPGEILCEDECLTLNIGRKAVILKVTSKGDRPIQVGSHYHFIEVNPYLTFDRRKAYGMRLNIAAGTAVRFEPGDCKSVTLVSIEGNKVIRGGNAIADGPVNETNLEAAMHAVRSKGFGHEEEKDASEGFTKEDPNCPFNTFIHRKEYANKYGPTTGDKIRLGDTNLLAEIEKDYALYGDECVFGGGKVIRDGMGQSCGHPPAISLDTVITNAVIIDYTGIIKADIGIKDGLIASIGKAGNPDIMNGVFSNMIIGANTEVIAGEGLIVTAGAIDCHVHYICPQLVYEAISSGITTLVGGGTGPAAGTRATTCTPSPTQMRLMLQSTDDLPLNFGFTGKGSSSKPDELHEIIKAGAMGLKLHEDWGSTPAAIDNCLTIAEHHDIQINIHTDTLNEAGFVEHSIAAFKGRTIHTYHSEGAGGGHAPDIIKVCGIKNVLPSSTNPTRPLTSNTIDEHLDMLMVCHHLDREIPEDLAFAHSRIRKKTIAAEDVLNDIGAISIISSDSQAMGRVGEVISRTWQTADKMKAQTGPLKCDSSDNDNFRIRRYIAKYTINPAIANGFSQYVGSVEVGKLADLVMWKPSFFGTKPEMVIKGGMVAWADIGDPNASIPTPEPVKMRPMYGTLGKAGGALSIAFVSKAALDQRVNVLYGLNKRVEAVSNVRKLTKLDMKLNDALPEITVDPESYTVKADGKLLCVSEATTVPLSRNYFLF

CCCCCCCC(=O)NC(=S)Nc1c(Cl)cccc1Cl [Compound 3i, N-(2′,6′-Dichlorophenylcarbamothioyl) octanamide]
IC50 (jack bean urease [1]): 22 ± 0.45 µM | % inhibition (jack bean urease [1]): 91.4%

CCCCCCCCCCCC(=O)NC(=S)Nc1ccc(Cl)c(Cl)c1 [Compound 3p, N-(3′,4′-Dichlorophenylcarbamothioyl) dodecanamide]
IC50 (jack bean urease [1]): 20.2 ± 0.48 µM | % inhibition (jack bean urease [1]): 85.2%

CCCCCCCC(=O)NC(=S)Nc1cccc(C)c1C [Compound 3k, N-(2′,3′-Dimethylphenylcarbamothioyl) octanamide]
IC50 (jack bean urease [1]): 46.2 ± 0.78 µM | % inhibition (jack bean urease [1]): 85.8%

CCCCCCCC(=O)NC(=S)Nc1cc(C)ccc1C [Compound 3d, N-(2′,5′-Dimethylphenylcarbamothioyl) octanamide]
IC50 (jack bean urease [1]): 60.1 ± 0.78 µM | % inhibition (jack bean urease [1]): 61.3%

CCCCCCCC(=O)NC(=S)Nc1ccc(C(F)(F)F)cc1 [Compound 3m, N-(4′-(Trifluoromethyl)phenylcarbamothioyl) octanamide]
IC50 (jack bean urease [1]): 31.16 ± 0.25 µM | % inhibition (jack bean urease [1]): 95.9%

CCCCCCCC(=O)NC(=S)Nc1ccccc1Sc1ccccc1 [Compound 3j, N-(2′-(Phenylthio)phenylcarbamothioyl) octanamide]
IC50 (jack bean urease [1]): 39.1 ± 0.72 µM | % inhibition (jack bean urease [1]): 86.5%

NC(N)=S [Thiourea, reference compound]
% inhibition (jack bean urease [1]): 92.1% | Mode of inhibition (jack bean urease [2]): Competitive | K m(app) (jack bean urease [2]; [3]): 2.18 mM | Ki (jack bean urease [2]; derived from Lineweaver–Burk and Dixon plots): 18.2 µM

CCCCCCCC(=O)NC(=S)Nc1cc([N+](=O)[O-])ccc1OC [Compound 3h, N-(2′-Methoxy-5′-nitrophenylcarbamothioyl) octanamide]
IC50 (jack bean urease [1]): 30.6 ± 0.75 µM | % inhibition (jack bean urease [1]): 88.1%

CCCCCCCC(=O)NC(=S)Nc1c(C)cccc1C [Compound 3g, N-(2′,6′-Dimethylphenylcarbamothioyl) octanamide]
IC50 (jack bean urease [1]): 15.2 ± 0.58 µM | % inhibition (jack bean urease [1]): 96.3% | Ki (jack bean urease [2]): 9.28 µM | Mode of inhibition (jack bean urease [2]): Competitive | K m(app) (jack bean urease [2]; [3]): 6.09 mM | V max(app) (jack bean urease [2]; [3]): 15.63 µM/min

CCCCCCCC(=O)NC(=S)Nc1ccc(C)c(C)c1 [Compound 3f, N-(3′,4′-Dimethylphenylcarbamothioyl) octanamide]
IC50 (jack bean urease [1]): 40.2 ± 0.45 µM | % inhibition (jack bean urease [1]): 76.2%
